Test results as given in article PMC11887051, “Discovery of ONO-2920632 (VU6011887): A Highly Selective and CNS Penetrant TREK-2 (TWIK-Related K+ Channel 2) Preferring Activator In Vivo Tool Compound” (ACS Chemical Neuroscience, 2025).

Columns and labels:
[1] = rat plasma:brain level study (Kp, Kp,uu); format: in vivo; conditions: male, Sprague-Dawley, brain and plasma; for Kp at 2 h / Kp uu at 2 h: oral rat plasma:brain level study, 2 h after 3 mg/kg PO
Description: In vivo DMPK experimental:
Determination of brain to plasma ratio:
All animal study procedures were approved by the Institutional Animal Care and Use Committee and were conducted in accordance with the National Institutes of Health regulations of animal care covered in Principles of Laboratory Animal Care (National Institutes of Health). All rats were fasted overnight prior to testing. […]
At 15 min post dosing, blood sample was collected into chilled, K2EDTA anticoagulant-fortified tube and immediately placed on wet ice. The blood sample was then centrifuged (1700 rcf, 5 minutes, 4 °C) to obtain plasma sample. At the same post-administration time point, whole brain sample was obtained by rapid dissection, rinsed with PBS, and immediately frozen in individual tissue collection box (dry ice). All brain and plasma samples were stored at -80 °C until […]
Sample Analysis: Concentrations in plasma and brain homogenates were quantified by liquid chromatography tandem mass spectrometry (LC-MS/MS). Whole brains were homogenized in 3 mL of 70:30 IPA:water in a mini bead beater for 3 min, and centrifuged at 3,500 g for 5 min. 5 uL of the supernatant was diluted in 15 uL of blank plasma for quantification of the analytes. Plasma samples were centrifuged at 3,500 g for 5 min. A standard curve was generated by diluting the analytes DMSO stocks with blank plasma to obtain a final concentration of 10,000 ng/ml followed by a serial dilution down to 0.5 ng/ml. Quality controls were generated by a serial dilution of the 5,000 ng/ml standard curve solution in blank plasma to obtain 3 concentrations of 500, 50, and 5 ng/ml. 20 uL of brain diluted in plasma, plasma, blank plasma, standard curve and QC samples were loaded in a V-bottom 96-well plate. 120 uL of acetonitrile containing 0.05 uM carbamazepine (internal standard) was added to each well and the plate was centrifuged at 3,500 g for 5 min. 60 uL of the supernatant of each well (protein free) was transferred to a new 96-well plate containing 60 uL of water. The plates were sealed for analysis by LC-MS/MS.
Plasma and brain tissue samples originating from in vivo studies were analyzed by electrospray ionization using an AB Sciex Q-TRAP 5500 (Foster City, CA) that was coupled to a Shimadzu LC-20AD pump (Columbia, MD) and a Leap Technologies CTC PAL auto-sampler (Carrboro, NC). Analytes were separated by gradient elution using a C18 column (3 x 50 mm, 3 mm; Fortis Technologies Ltd, Cheshire, UK) that was thermostated at 40 °C. HPLC mobile phase A was 0.1% formic acid in water (pH unadjusted); mobile phase B was 0.1% formic acid in acetonitrile (pH […]
min, with an isocratic hold for 0.5 min, before transitioning to 10% B over 0.05 min. The column was re-equilibrated (1 min) before the next sample injection. The total run time was 2.55 min, and the HPLC flow rate was 0.5 ml/min. The source temperature was set at 500 °C, and mass spectral analyses were performed using a Turbo-Ion spray source in positive ionization mode (5.0-kV spray voltage) and using multiple-reaction monitoring of transitions specific for the analytes. All data were analyzed using AB Sciex Analyst 1.5.1 software.
Brain plasma concentration ratio (Kp) was calculated by dividing brain concentration by plasma concentration for each animal. Unbound brain to unbound plasma concentration ratio (Kp,uu) is calculated using the following formula: Kp,uu = (Brain ng/g x brain fu)/(plasma ng/ml x plasma fu).
For determination of the plasma concentration-time profile, compounds were formulated in methyl cellulose and administered as a 3 mg/kg PO dose to male C57BL/6 mouse or SD rat (n = 2). For the same determination, compounds were formulated in HP-β-CD and administered as a 0.1 mg/kg IV dose to male beagle dog (n = 2).
Plasma samples originating from in vivo studies were analyzed by electrospray ionization using a Q-TRAP 5500 (AB Sciex) that was coupled to a Prominence UFLC XR (Shimadzu Corporation). […]

TREK-1 = target: T1, TREK-1 (Homo sapiens, UniProt O95069); assay: TREK-1 thallium flux assay (hTREK-1/CHO); format: cell-based; design: host or cells: CHO; conditions: for Emax: % activation relative to 10 µM BL-1249
T1 sequence (O95069 1-426): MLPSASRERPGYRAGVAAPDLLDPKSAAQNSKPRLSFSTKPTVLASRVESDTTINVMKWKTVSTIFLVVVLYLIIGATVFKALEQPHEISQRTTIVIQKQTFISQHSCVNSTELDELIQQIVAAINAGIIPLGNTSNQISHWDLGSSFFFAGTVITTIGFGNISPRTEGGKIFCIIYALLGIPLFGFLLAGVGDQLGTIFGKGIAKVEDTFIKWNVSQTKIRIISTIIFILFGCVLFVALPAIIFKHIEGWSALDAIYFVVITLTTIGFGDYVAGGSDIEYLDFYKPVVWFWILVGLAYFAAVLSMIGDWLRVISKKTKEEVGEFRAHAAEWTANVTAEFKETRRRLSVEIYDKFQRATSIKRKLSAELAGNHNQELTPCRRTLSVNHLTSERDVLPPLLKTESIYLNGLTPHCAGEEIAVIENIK
Description: Procedures for Biological Experiments
TREK-1 and TREK-2 thallium flux assay protocol
CHO cells stably expressing human TREK-1 (hTREK-1/CHO) were constructed at Evotec. […]
hTREK-1/CHO or hTREK-2/HEK were plated in 384-well plates at a density of 1.0x10^4 cells/well or 2.0x10^4 cells/well, respectively, and cultured overnight. After the wash by HBSS + 20 mM HEPES buffer, cells were loaded with Thallos dye for 1 hour at room temperature. After the wash […]
dissolved with HBSS + 20mM HEPES buffer were added to each well. After 10 minutes incubation at room temperature, thallium stimulus buffer were added to each well and the fluorescent intensity are measured by Panoptic. The final thallium concentration was 0.36 mM in […]
TREK-1 or 0.24 mM in TREK-2, respectively. […]

mouse TREK-1 = target: T2, mouse TREK-1 (Mus musculus, UniProt P97438); assay: mouse TREK-1 MPC assay; format: cell-based; conditions: manual patch clamp
T2 sequence (P97438 1-426): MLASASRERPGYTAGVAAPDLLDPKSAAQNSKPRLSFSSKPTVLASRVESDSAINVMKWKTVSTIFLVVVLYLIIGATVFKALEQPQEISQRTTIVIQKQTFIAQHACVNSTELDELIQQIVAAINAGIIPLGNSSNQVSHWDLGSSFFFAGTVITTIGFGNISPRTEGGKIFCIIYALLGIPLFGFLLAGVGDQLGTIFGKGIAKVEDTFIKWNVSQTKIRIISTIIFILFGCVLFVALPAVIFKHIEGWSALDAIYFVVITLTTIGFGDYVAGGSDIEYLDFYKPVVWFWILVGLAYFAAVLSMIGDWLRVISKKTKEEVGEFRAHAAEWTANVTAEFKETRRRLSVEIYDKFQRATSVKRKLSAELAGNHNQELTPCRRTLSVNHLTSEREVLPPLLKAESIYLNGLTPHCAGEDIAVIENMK

[2] = intravenous, 0.2 mg/kg, rat cassette PK study

Kp at 2 h [1] | Kp uu at 2 h [1] | EC50 (TREK-1) [nM] | Emax (TREK-1) [%] | EC50 (mouse TREK-1) [nM] | Emax (mouse TREK-1) [%] | Kp at 15 min [1, 2] | Kp uu at 15 min [1, 2] | Kp uu ([1]; rat, dosing not given) | Compound
0.26 | 0.15 | 8100 | 85 | – | – | – | – | – | CS(=O)(=O)Nc1ccc(C(=O)NCc2ccc(Cl)cc2Cl)cc1 [Compound 13]
– | – | 1600 | 93 | 1900 | 94 | 0.2 | 0.36 | – | O=C(NCc1ccc(Br)cc1Cl)c1ccc(-c2ncn[nH]2)cc1 [Compound 14a]
– | – | – | – | – | – | – | – | 0.078 | O=C(NCc1ccc(OC(F)(F)F)cc1Cl)c1ccc2nncn2c1 [Compound 20]
0.5 | 0.2 | 3800 | 99 | 5000 | 106 | – | – | – | Cc1cc(OC(F)(F)F)ccc1CNC(=O)c1ccc2ncnn2c1 [Compound 19a]

Compound | Kp at 2 h [1] | Kp uu at 2 h [1] | EC50 (TREK-1) [nM] | Emax (TREK-1) [%] | EC50 (mouse TREK-1) [nM] | Emax (mouse TREK-1) [%] | Kp at 15 min [1, 2] | Kp uu at 15 min [1, 2] | Kp uu ([1]; rat, dosing not given)
O=C(NCc1ccc(OC(F)(F)F)cc1F)c1ccc2ncnn2c1 [Compound 19b] | 0.37 | 0.38 | 2800 | 95 | 2700 | 109 | – | – | –
